Structures are written as SMILES.

Data set [1] in a line: Lipophilicity, log P of the compound. It is filed as physicochemical. The note with it: octanol/water.
The nature of data set [2]: Selectivity index, ratio of CC50 for human MRC5 cells to IC50 for trypomastigote form of Trypanosoma brucei rhodesiense STIB900. It is filed as functional.
Data set [3] can be described thus: Selectivity index, ratio of CC50 for human MRC5 cells to IC50 for amastigote form of Leishmania infantum MHOM/MA(BE)/67. It is filed as functional.
Data set [4] in a line: Cytotoxicity against human MRC5 cells assessed as cell viability after 7 days by Alamar blue assay. In kind it is cell-based.
The test system of data set [5] is Trypanosoma brucei rhodesiense. Put plainly: Antiprotozoal activity against trypomastigote form of Trypanosoma brucei rhodesiense STIB900 assessed as parasite growth inhibition after 72 hrs by Alamar blue assay. To be noted: STIB900, 72 h. In kind it is functional, organism-based. (Alamar Blue is a resazurin reagent that responds to reducing activity.)
The nature of data set [6]: Selectivity index, ratio of CC50 for human MRC5 cells to IC50 for trypomastigote form of Trypanosoma brucei brucei 427. It is filed as functional.
A further data set concerns Leishmania infantum. Put plainly: Antiprotozoal activity against amastigote form of Leishmania infantum MHOM/MA(BE)/67 infected in mouse peritoneal macrophages assessed as reduction of intracellular parasite burden after 5 days by Giemsa staining method. In kind it is functional, organism-based. The note with it: MHOM/MA(BE)/67, 120 h.
Data set [7] relates to Trypanosoma brucei brucei. Put plainly: Antiprotozoal activity against trypomastigote form of Trypanosoma brucei brucei 427 assessed as parasite growth inhibition. In kind it is functional, organism-based.
The test system of another data set is Trypanosoma cruzi. Put plainly: Antiprotozoal activity against epimastigote form of Trypanosoma cruzi Tulahuen 2 assessed as parasite growth inhibition measured at day 5. In kind it is functional, organism-based. To be noted: Tulahuen 2, 120 h.
The nature of data set [8]: Selectivity index, ratio of CC50 for human MRC5 cells to IC50 for epimastigote form of Trypanosoma cruzi Tulahuen 2. In kind it is functional.

Broadly, the logP is a log measure of how a compound divides between an organic and an aqueous phase. A low value points to a more hydrophilic compound. As a reminder, the CC50 is the concentration that lowers cell viability or growth by half. What is called IC50 is the point on the concentration scale where inhibition reaches its midpoint. For `O/N=C1\c2ccccc2-c2c1c(N1CCN(c3ccccn3)CC1)nc1ccc(Br)cc21`, the logP in data set [1] was found to be 6.4. The “Ratio CC50/IC50” value in [2] is on record as 24.52; in data set [3] it was 6.73; in [6] it was 7.34; in data set [8], 9.13. The CC50 at 168 h in data set [4] worked out at 64 µM. Further, the IC50 turned out to be 2.61 µM in [5], 9.51 µM in the data set with Leishmania infantum, 8.17 µM in data set [7] and 7.01 µM in the data set with Trypanosoma cruzi.
With `CC(C)(C)OC(=O)NCC(=O)O/N=C1\c2ccccc2-c2c1c(N1CCN(c3ccccn3)CC1)nc1ccc(Br)cc21`, the “Ratio CC50/IC50” value in [2] came out at 53.33; in data set [3], 12.6; in data set [6], 10.58; in [8], 9.38. In addition, the CC50 at 168 h in [4] is 64 µM. Also, the IC50 came out at 1.2 µM in data set [5], 5.08 µM with Leishmania infantum, 6.05 µM in [7] and 6.82 µM with Trypanosoma cruzi.
As for `CCCC(=O)O/N=C1\c2ccccc2-c2c1c(-n1ccnc1)nc1ccc(Br)cc21`, the “Ratio CC50/IC50” value in data set [2] was found to be 1.6; in [3] it was 1.37; in data set [6], 1; in data set [8] it was 3.45. In [4], the CC50 at 168 h turned out to be 8.23 µM. Further, the IC50 is 5.14 µM in data set [5], 6.01 µM with Leishmania infantum, 8.17 µM in data set [7] and 2.38 µM with Trypanosoma cruzi.
Regarding `CC(NC(=O)OC(C)(C)C)C(=O)O/N=C1\c2ccccc2-c2c1c(N1CCN(c3ccccn3)CC1)nc1ccc(Br)cc21` (stereo not given), the “Ratio CC50/IC50” value in [2] came out at 16.3; in data set [3] it was 3.86; in data set [6] it was 13.19; in [8] it was 4.33. In data set [4], the 50% cytotoxic concentration (CC50) at 168 h came out at 26.9 µM. Also, the IC50 in data set [5] was determined as 1.65 µM; in the data set on Leishmania infantum, 6.96 µM; in [7], 2.04 µM; in the data set on Trypanosoma cruzi it was 6.21 µM.
Consider `CC(C)(C)OC(=O)NC(C(=O)O/N=C1\c2ccccc2-c2c1c(N1CCN(c3ccccn3)CC1)nc1ccc(Br)cc21)C(C)(C)C` (stereo not given), for which the “Ratio CC50/IC50” value stood at 26.17 in data set [2], 6.29 in data set [3], 16.48 in data set [6] and 4.52 in data set [8]. Besides, in data set [4], the CC50 at 168 h was 35.6 µM. For the same compound, the half-maximal inhibitory concentration (IC50) worked out at 1.36 µM in data set [5], 5.66 µM with Leishmania infantum, 2.16 µM in [7] and 7.87 µM in the data set with Trypanosoma cruzi.
Take `CSCCC(NC(=O)OC(C)(C)C)C(=O)O/N=C1\c2ccccc2-c2c1c(N1CCN(c3ccccn3)CC1)nc1ccc(Br)cc21` (stereo not given): the “Ratio CC50/IC50” value was 44.44 in data set [2], 6.73 in data set [3], 26.66 in data set [6] and 8.66 in data set [8]. In addition, in data set [4], the CC50 at 168 h amounted to 64 µM. Besides, the IC50 in [5] was determined as 1.44 µM; in the data set with Leishmania infantum, 9.51 µM; in [7], 2.4 µM; in the data set on Trypanosoma cruzi, 7.39 µM.
For `CC(C)CC(NC(=O)OCC1c2ccccc2-c2ccccc21)C(=O)O/N=C1\c2ccccc2-c2c1c(N1CCN(c3ccccn3)CC1)nc1ccc(Br)cc21` (stereo not given), the lipophilicity (logP) in [1] amounted to 8.3. In addition, the “Ratio CC50/IC50” value in data set [2] came to 8.94; in [3], 4.28; in [6] it was 1.85; in data set [8], 1.8. In data set [4], the CC50 at 168 h came out at 13.6 µM. Moreover, the IC50 in data set [5] turned out to be 1.52 µM; in the data set with Leishmania infantum it was 3.17 µM; in data set [7], 7.33 µM; with Trypanosoma cruzi it was 7.52 µM.
For `CC(C)(C)OC(=O)N1CCCC1C(=O)O/N=C1\c2ccccc2-c2c1c(-n1ccnc1)nc1ccc(Br)cc21` (stereo not given), the “Ratio CC50/IC50” value was found to be 1.85 in data set [2], 0.63 in data set [3], 1.09 in data set [6] and 1.08 in [8]. Besides, the CC50 at 168 h in data set [4] was found to be 8 µM. For the same compound, the IC50 in [5] was 4.33 µM; in the data set with Leishmania infantum, 12.7 µM; in [7], 7.31 µM; in the data set on Trypanosoma cruzi, 7.38 µM.
For the compound `CC(O)c1cc(F)ccc1Oc1nc2ccc(NS(=O)(=O)c3cccc(C(F)(F)F)c3)cc2cc1Cc1ccccc1` (stereo not given), the logP in data set [1] came to 7.69. In addition, in data set [4], the CC50 at 168 h worked out at 8 µM. Also, the IC50 in data set [5] worked out at 1.46 µM; in the data set on Leishmania infantum, 8.11 µM; in data set [7], 2.18 µM; in the data set on Trypanosoma cruzi, 3.7 µM.
For `O=[N+]([O-])c1ccc2nc(Oc3ccc(F)cc3C(O)CN3CCCCC3)c(Cc3ccccc3)cc2c1` (stereo not given), the “Ratio CC50/IC50” value was 8.8 in [2], 1.29 in data set [3], 4.31 in data set [6] and 2.2 in [8]. The IC50 in [5] stood at 1.22 µM; with Leishmania infantum, 2.16 µM; in [7] it was 2.01 µM; with Trypanosoma cruzi, 2 µM.
`COc1cccc(N2CCN(CC(O)COC3(C)c4ccccc4-c4c3c(N3CCN(C(c5ccccc5)c5ccccc5)CC3)nc3ccc(Br)cc43)CC2)c1` (stereo not given): the “Ratio CC50/IC50” value is given as 71.44 in data set [2], 2.04 in [3], 30.26 in data set [6] and 0.96 in [8]. In addition, in data set [4], the CC50 at 168 h was determined as 61.4 µM. The IC50 in data set [5] amounted to 0.86 µM; in the data set with Leishmania infantum, 30.1 µM; in data set [7], 2.03 µM; with Trypanosoma cruzi, 64 µM.
Turning to `CC(C)(C)OC(=O)N1CCCC(C(=O)O/N=C2\c3ccccc3-c3c2c(C(F)(F)F)nc2ccc(Br)cc32)C1` (stereo not given), the “Ratio CC50/IC50” value in data set [2] is reported as 1.91; in data set [3], 0.72; in [6] it was 0.77; in data set [8], 0.47. Further, the CC50 at 168 h in data set [4] is 5.84 µM. Also, the IC50 was 3.06 µM in data set [5], 8.11 µM in the data set with Leishmania infantum, 7.56 µM in data set [7] and 12.3 µM with Trypanosoma cruzi.
As for `O=C1c2ccccc2-c2c1c(N1CCN(c3ccccn3)CC1)nc1ccc(Br)cc21`, the logP in data set [1] turned out to be 6.01. The “Ratio CC50/IC50” value is given as 0.72 in [2], 0.21 in data set [3], 0.56 in data set [6] and 0.63 in data set [8]. The CC50 at 168 h in [4] is 4.33 µM. Moreover, the IC50 in data set [5] came to 5.98 µM; in the data set with Leishmania infantum, 20.3 µM; in data set [7], 7.69 µM; in the data set with Trypanosoma cruzi it was 6.87 µM.
On to `COc1nc2ccc(Br)cc2cc1C(c1ccccc1)n1cnc([N+](=O)[O-])c1` (stereo not given), for which the “Ratio CC50/IC50” value in [2] is given as 145.45; in [3], 1.25; in [6] it was 29.62; in [8], 9.19. Besides, the CC50 at 168 h in data set [4] was 64 µM. Also, the IC50 in data set [5] came out at 0.44 µM; with Leishmania infantum it was 50.8 µM; in data set [7], 2.16 µM; in the data set with Trypanosoma cruzi, 6.96 µM.
Regarding `COc1cccc(-c2ccn(CC(O)c3cc(F)ccc3Oc3nc4ccc([N+](=O)[O-])cc4cc3Cc3ccccc3)n2)c1` (stereo not given), in data set [2], the Ratio CC50/IC50 is 30.8. The CC50 at 168 h in [4] worked out at 64 µM. In addition, the 50% inhibitory concentration (IC50) in [5] was 2.08 µM; with Leishmania infantum it was 8 µM; in data set [7] it was 2.4 µM; in the data set on Trypanosoma cruzi it was 6.01 µM.
Take `COc1ccc(-c2ccn(CC(O)c3cc(F)ccc3Oc3nc4ccc([N+](=O)[O-])cc4cc3Cc3ccccc3)n2)cc1` (stereo not given): the “Ratio CC50/IC50” value is 31.52 in [2], 3.15 in [3], 31.37 in data set [6] and 33.16 in data set [8]. Further, the IC50 came to 0.71 µM in data set [5], 20.3 µM in the data set with Leishmania infantum, 2.12 µM in data set [7] and 64 µM in the data set on Trypanosoma cruzi.
In [1], `COc1cccc(NC(=S)Nc2ccc3nc(Oc4ccc(F)cc4C(C)O)c(Cc4ccccc4)cc3c2)c1` (stereo not given) showed a logP of 7.86. The entries for the “Ratio CC50/IC50” value in data set [3] and in data set [6] were 8 and 26.66, respectively. Moreover, the cytotoxic concentration (CC50) at 168 h in [4] was 64 µM. In addition, the half-inhibitory concentration (IC50) in data set [5] stood at 0.53 µM; with Leishmania infantum it was 6.82 µM; in data set [7], 2 µM; with Trypanosoma cruzi, 14.7 µM.
As to `CC(c1cc(F)ccc1Oc1nc2ccc(-n3cc(-c4ccccc4)nn3)cc2cc1Cc1ccccc1)n1ccnc1` (stereo not given), the logP in data set [1] turned out to be 7.91. In addition, the “Ratio CC50/IC50” value in data set [3] is 3.15; in data set [6] it was 30.18. In addition, the CC50 at 168 h in data set [4] was 64 µM. The IC50 in data set [5] came to 2.03 µM; in the data set on Leishmania infantum it was 20.3 µM; in data set [7], 2.04 µM; in the data set with Trypanosoma cruzi, 1.93 µM.
Consider `COc1cccc(NC(=O)Nc2ccc3nc(Oc4ccc(F)cc4C(C)O)c(Cc4ccccc4)cc3c2)c1` (stereo not given), for which, in data set [1], the logP was 6.72. Further, the “Ratio CC50/IC50” value in data set [2] stood at 30.18. Besides, the CC50 at 168 h in data set [4] is 64 µM. Moreover, the 50% inhibitory concentration (IC50) in data set [5] turned out to be 2.07 µM; in the data set on Leishmania infantum it was 8.11 µM; in [7] it was 2.04 µM; with Trypanosoma cruzi it was 6.23 µM.
Turning to `COc1ccccc1NC(=S)Nc1ccc2nc(Oc3ccc(F)cc3C(C)O)c(Cc3ccccc3)cc2c1` (stereo not given), in data set [1], the logP came to 7.86. For the same compound, the “Ratio CC50/IC50” value is 32.31 in [2] and 5.22 in data set [3]. For the same compound, in data set [4], the CC50 at 168 h turned out to be 16 µM. Also, the IC50 in data set [5] was 0.53 µM; with Leishmania infantum, 5.28 µM; in data set [7], 1.79 µM; in the data set on Trypanosoma cruzi, 4.33 µM.

The record behind these values is ChEMBL document CHEMBL2375345, “New antiprotozoal agents: their synthesis and biological evaluations” (Bioorg Med Chem Lett, 2013).
